The values that follow come from patent publication EP0084597A1, “Triazole and imidazole derivatives and pharmaceutical preparations containing them” (BAYER AG, priority 1981, dated 1983).

Molecules are shown by their SMILES. Converted amounts (≈) assume the structure as drawn. Bounds are passed on as bounds.

In one assay the test system is Aspergillus fumig. As to the kind of experiment: Antimycotic in-vitro activity, serial dilution test (MIC). Type of assay: cell-based, Aspergillus fumigatus. To be noted: Sabouraud medium, 20°C, inoculum 5 x 10^4 germs/ml; for MIC: Aspergillus, 96 h, read-out: MHK-Werte in γ/ml Nährmedium, Aspergillus fumig. As to the method: (§1) Die in-vitro-Prüfungen wurden im Reihenverdünnungstest mit Keiminokula von durchschnittlich 5 x 10^4 Keimen/ml Substrat durchgeführt. Als Nährmedium dienten • a) für Dermatophyten und Schimmelpilze: Sabourand's milieu d'epreuve • b) für Hefen: Fleischextrakt-Traubenzucker-Bouillon.
(§2) Die Bebrütungstemperatur betrug 20°C, die Bebrütungsdauer lag bei 24 bis 96 Stunden bei Hefen und 96 Stunden bei Dermatophyten und Schimmelpilzen.

The subject of the next assay is Microsporum canis. Described as above. The class given is cell-based. To be noted: Sabouraud medium, 20°C, inoculum 5 x 10^4 germs/ml; for MIC: Microsporum canis, 96 h, read-out: MHK-Werte in γ/ml Nährmedium, Microsporum canis. As to the method: as §1, §2
Another assay relates to Torulopsis glabrata. The description is as above. To be noted: meat extract-glucose broth, 20°C, 24 to 96 hours, inoculum 5 x 10^4 germs/ml; for MIC: Nakaseomyces glabratus, read-out: MHK-Werte in γ/ml Nährmedium, Torulopsis glabrata. The class given is cell-based. Here is the method:
as §1, §2

The subject of the next assay is Candida albicans. Described as above. Type of assay: cell-based. To be noted: meat extract-glucose broth, 20°C, 24 to 96 hours, inoculum 5 x 10^4 germs/ml; for MIC: Candida albicans, read-out: MHK-Werte in γ/ml Nährmedium, Candida albicans. Here is the method: as §1, §2
Assay [1] concerns Dermatophyten und Schimmelpilze, Hefen. As to the kind of experiment: Antimycotic in-vitro activity, serial dilution test, overall comparison with known compounds. Type of assay: cell-based. To be noted: compared with known compounds (A),(B),(C) and (D). Here is the method: as §1, §2
In a further assay the test system is Trichophyton mentagr. Put plainly: Antimycotic in-vitro activity, serial dilution test (MIC). Type of assay: cell-based, Trichophyton mentagrophytes. To be noted: Sabouraud medium, 20°C, 96 hours, inoculum 5 x 10^4 germs/ml; for MIC: Trichophyton, read-out: MHK-Werte in γ/ml Nährmedium, Trichophyton mentagr. As to the method:
as §1, §2

The test system of a further assay is Candida-Zellen. As to the kind of experiment: Antimycotic in-vivo activity (oral) in mouse candidosis. Also noted: species or system Mäuse vom Typ SPF-CF1; key: +++++: sehr gute Wirkung = 90 % Ueberlebende am 6.Tag p.i.; ++++: gute Wirkung = 80 % Ueberlebende am 6.Tag p.i.; +++: Wirkung = 60 % Ueberlebende am 6.Tag p.i.; ++: schwache Wirkung = 40 % Ueberlebende am 6.Tag p.i.; +: Spur Wirkung; k.W.: keine Wirkung. Here is the method:
Mäuse vom Typ SPF-CF1 wurden intravenös mit 1 - 2 x 10^6 logarithmisch wachsenden Candida-Zellen, die in physiologischer Kochsalzlösung suspendiert werden, infiziert. Eine Stunde vor und sieben Stunden nach der Infektion werden die Tiere mit jeweils 50 - 100 mg/kg Körpergewicht der Präparate oral behandelt.
Uhbehandelte Tiere starben 3 bis 6 Tage post infektionem. Die Ueberlebensrate am 6.Tag post infektionem betrug bei uhbehandelten Kontrolltieren etwa 5 %.
• +++++ = sehr gute Wirkung = 90 % Ueberlebende am 6.Tag p.i. • ++++ = gute Wirkung = 80 % Ueberlebende am 6.Tag p.i. • +++ = Wirkung = 60 % Ueberlebende am 6.Tag p.i. • ++ = schwache Wirkung = 40 % Ueberlebende am 6.Tag p.i. • + = Spur Wirkung = k.W. = keine Wirkung

The mark [2] stands for this setting: mice infected i.v. with 1 - 2 x 10^6 Candida cells, oral 50 - 100 mg/kg one hour before and seven hours after infection, survivors on day 6 p.i.
Where [3] appears, read: mouse candidosis, oral, compared with known compounds (A), (B), (C) and (D).

On to `CCCCC(C(O)c1ccc(Oc2ccc(Cl)cc2)cc1)n1cncn1` (single isomer, unassigned) [Beispiel 34], for which, in the assay with Aspergillus fumig. (96 hours), the “MHK-Werte in γ/ml Nährmedium, Aspergillus fumig.” value came out at 32 µg/mL. For the same compound, the “MHK-Werte in γ/ml Nährmedium, Microsporum canis” value in the assay with Microsporum canis (96 hours) was found to be 32 µg/mL. In addition, the “MHK-Werte in γ/ml Nährmedium, Torulopsis glabrata” value in the assay with Torulopsis glabrata is greater than 64 µg/mL. The “MHK-Werte in γ/ml Nährmedium, Candida albicans” value with Candida albicans was less than 1 µg/mL. The “antimykotische Wirkung” value in assay [1] is recorded as “bessere antimykotische Wirkung”. Besides, the “MHK-Werte in γ/ml Nährmedium, Trichophyton mentagr.” value with Trichophyton mentagr. was less than 1 µg/mL.

Turning to `CC(C(=O)c1ccccc1)n1cncn1` (centres unmarked) [(A), reference compound], the Wirkung result in the assay on Candida-Zellen (setting [2]) is “k.W”. The MIC in the assay on Candida albicans and in the assay with Trichophyton mentagr. was greater than 64 µg/mL each time.

On to `O=C(Cn1cncn1)c1ccc(-c2ccccc2)cc1` [(B), reference compound], for which the Wirkung entry with Candida-Zellen (setting [2]) is “k.W”. The MIC with Aspergillus fumig. was greater than 64 µg/mL; in the assay on Microsporum canis, greater than 64 µg/mL; in the assay on Candida albicans it was greater than 64 µg/mL; with Trichophyton mentagr. it was 4 µg/mL (≈ 15.2 µM).

With `CC(C(O)c1ccc(Cl)cc1)n1cncn1` (centres unmarked) [(C), reference compound], the Wirkung result in the assay on Candida-Zellen (setting [2]) is listed as “k.W”. The MIC with Candida albicans and in the assay on Trichophyton mentagr. was greater than 64 µg/mL each time.

On to `OC(Cn1cncn1)c1ccc(-c2ccc(Cl)cc2)cc1` (centres unmarked) [(D), reference compound], for which the Wirkung result with Candida-Zellen (setting [2]) was “k.W”. The MIC is greater than 64 µg/mL in the assay on Aspergillus fumig., greater than 64 µg/mL in the assay with Microsporum canis, greater than 64 µg/mL in the assay on Candida albicans and 4 µg/mL (≈ 13.3 µM) in the assay with Trichophyton mentagr..

On to `CCC(C(=O)c1ccc(Oc2ccc(Cl)cc2)cc1)n1cncn1` (centres unmarked) [Beispiel 7], for which the MIC with Aspergillus fumig. amounted to 32 µg/mL (≈ 93.6 µM); in the assay on Microsporum canis, 2 µg/mL (≈ 5.85 µM); in the assay on Torulopsis glabrata, 64 µg/mL (≈ 187 µM); in the assay on Candida albicans it was 16 µg/mL (≈ 46.8 µM); with Trichophyton mentagr., 4 µg/mL (≈ 11.7 µM). Also, the “antimykotische Wirkung” value in assay [1] is reported as “bessere antimykotische Wirkung”.

In the case of `CC(C)C(C(=O)c1ccc(Oc2ccc(Cl)cc2)cc1)n1cncn1` (centres unmarked) [Beispiel 13], the MIC came to 8 µg/mL (≈ 22.5 µM) with Aspergillus fumig., 8 µg/mL (≈ 22.5 µM) in the assay on Microsporum canis, 64 µg/mL (≈ 180 µM) in the assay with Candida albicans and 4 µg/mL (≈ 11.2 µM) in the assay with Trichophyton mentagr.. In addition, in assay [1], the “antimykotische Wirkung” value is on record as “bessere antimykotische Wirkung”.

Regarding `CCCC(C(=O)c1ccc(Oc2ccc(Cl)cc2)cc1)n1ccnc1` (centres unmarked) [Beispiel 25], the MIC was less than 1 µg/mL in the assay on Aspergillus fumig.; 8 µg/mL (≈ 22.5 µM) in the assay on Microsporum canis; less than 1 µg/mL in the assay on Torulopsis glabrata; less than 1 µg/mL in the assay with Candida albicans; less than 1 µg/mL with Trichophyton mentagr.. In addition, the “antimykotische Wirkung” value in assay [1] is recorded as “bessere antimykotische Wirkung”.

On to `CC(C(=O)c1ccc(Oc2ccc(Cl)cc2)cc1)n1ccnc1` (centres unmarked) [Beispiel 26], for which the Wirkung entry in the assay on Candida-Zellen (setting [2]) is “+”; in the assay on Candida-Zellen (setting [3]), “bessere Wirkung”. The MIC with Aspergillus fumig. was determined as 16 µg/mL (≈ 49 µM); in the assay on Torulopsis glabrata, 16 µg/mL (≈ 49 µM); in the assay on Candida albicans it was 4 µg/mL (≈ 12.2 µM); in the assay with Trichophyton mentagr., 8 µg/mL (≈ 24.5 µM). Further, the “antimykotische Wirkung” value in assay [1] was “bessere antimykotische Wirkung”.

Turning to `CCCCC(C(=O)c1ccc(Oc2ccc(Cl)cc2)cc1)n1ccnc1` (centres unmarked) [Beispiel 27], the MIC with Aspergillus fumig., in the assay on Microsporum canis, in the assay with Torulopsis glabrata, in the assay on Candida albicans and in the assay on Trichophyton mentagr. was less than 1 µg/mL throughout. In addition, the “antimykotische Wirkung” value in assay [1] is on record as “bessere antimykotische Wirkung”.

On to `CC(C)C(C(=O)c1ccc(Oc2ccc(Cl)cc2)cc1)n1ccnc1` (centres unmarked) [Beispiel 28], for which the MIC in the assay on Aspergillus fumig. is less than 1 µg/mL; with Microsporum canis it was 2 µg/mL (≈ 5.64 µM); in the assay with Torulopsis glabrata, 2 µg/mL (≈ 5.64 µM); in the assay with Candida albicans it was less than 1 µg/mL; in the assay with Trichophyton mentagr. it was less than 1 µg/mL. The “antimykotische Wirkung” value in assay [1] was “bessere antimykotische Wirkung”.

On to `CC(C(O)c1ccc(Oc2ccc(Cl)cc2)cc1)n1ccnc1` (centres unmarked) [Beispiel 71], for which the Wirkung result was “+++ (Wirkung = 60 % Ueberlebende am 6.Tag p.i.)” in the assay on Candida-Zellen (setting [2]) and “bessere Wirkung” in the assay on Candida-Zellen (setting [3]). Further, the MIC in the assay with Aspergillus fumig. was 16 µg/mL (≈ 48.7 µM); in the assay with Torulopsis glabrata, 2 µg/mL (≈ 6.08 µM); in the assay with Candida albicans, less than 1 µg/mL; in the assay with Trichophyton mentagr., 8 µg/mL (≈ 24.3 µM). Moreover, the “antimykotische Wirkung” value in assay [1] is reported as “bessere antimykotische Wirkung”.
